Article PMC6792352, “Limited Chemical Structural Diversity Found to Modulate Thyroid Hormone Receptor in the Tox21 Chemical Library” (Environmental Health Perspectives, 2019)
Where a name gives a salt, the structure may show the parent alone.

Assay: in vitro
Conditions: rat, gh3-tre-luc cells, AC50 (uM) modified / 1000

Row | SMILES | CC50 at 24 h [µM]
1 | CC(C)COC(=O)c1ccccc1 [Isobutyl benzoate] | > 90
2 | CO/N=C(/C(=O)OC)c1ccccc1COc1ccccc1C [Kresoxim-methyl] | > 90
3 | COc1cc(C(C)C)c2c(c1)S(=O)(=O)N(COc1cc(=O)n3cccc(OCCN4CCCCC4)c3n1)C2=O [SSR69071] | 11.9
4 | CN(C)[C@@H]1C(=O)C(C(N)=O)=C(O)[C@@]2(O)C(=O)C3=C(O)c4c(O)cccc4[C@@](C)(O)[C@H]3[C@H](O)[C@@H]12 [Oxytetracycline] | > 90
5 | CC(C)=CCC/C(C)=C/CC/C(C)=C/CCC(=O)OC/C=C(\C)CCC=C(C)C [Gefarnate] | > 50
6 | CCCCCCCCCCO[C@@H]1O[C@H](CO)[C@@H](O)[C@H](O)[C@H]1O [Decyl beta-D-glucopyranoside] | > 90
7 | c1ccc(Nc2ccc(Nc3ccccc3)cc2)cc1 [N,N'-Diphenyl-p-phenylenediamine] | 33.3
8 | CCC1(CO)COCOC1 [(5-Ethyl-1,3-dioxan-5-yl)methanol] | > 90
9 | O=C(O)CCC/C=C\C[C@@H]1[C@@H](/C=C/[C@@H](O)COc2cccc(C(F)(F)F)c2)[C@H](O)C[C@@H]1O (racemic) [Fluprostenol] | > 50
10 | Cc1cccc(C)c1N [2,6-Dimethylaniline] | > 90
11 | CCCN(CC)CC1COC2(CCC(C(C)(C)C)CC2)O1 (stereo not drawn) [Spiroxamine] | > 90
12 | O=c1oc2ccccc2c(O)c1C1CCCc2ccccc21 (stereo not drawn) [Coumatetralyl] | > 90
13 | CC(C)c1ccc(C=O)cc1 [4-Isopropylbenzaldehyde] | > 90
14 | Cc1ccc(NC(=O)N(C)C)cc1NC(=O)N(C)C [3,3'-(4-Methylbenzene-1,3-diyl)bis(1,1-dimethylurea)] | > 90
15 | NCc1cccc(C2CCN(C(=O)c3ccc(C#Cc4ccccc4F)o3)CC2)c1 [AVE5638] | 6.44
16 | COCCOC[C@H](CC1(C(=O)N[C@H]2CC[C@@H](C(=O)O)CC2)CCCC1)C(=O)Oc1ccc2c(c1)CCC2 [Candoxatril] | > 90
17 | CN(C(=O)CO)c1c(I)c(C(=O)NCC(O)CO)c(I)c(C(=O)NCC(O)CO)c1I (stereo not drawn) [Iomeprol] | > 50
18 | Cc1ccccc1C(=O)N1CC/C(=N\OS(=O)(=O)O)c2ccc(Cl)cc21 [Alilusem potassium] | > 50
19 | C[Si](O[Si](C)(C)C)O[Si](C)(C)C | > 90
20 | CCCCCCCCCCCC(=O)NCCCN(C)C [N-[3-(Dimethylamino)propyl]dodecanamide] | 18
21 | CNCCC(Oc1ccccc1OC)c1ccccc1 (stereo not drawn) [Nisoxetine] | 38.3
22 | NC(Cc1c[nH]c2ccccc12)C(=O)O (racemic) [dl-Tryptophan] | > 50
23 | NCCOCCOCCN [2,2'-[Ethane-1,2-diylbis(oxy)]diethanamine] | > 90
24 | O=C(O)[C@H]1/C(=C/CO)O[C@@H]2CC(=O)N21 [Clavulanate lithium] | > 50
25 | CCCN1CCCC[C@H]1C(=O)Nc1c(C)cccc1C [Ropivacaine hydrochloride] | > 50

Row | SMILES | CC50 at 24 h [µM]
26 | CCOc1ccc2ccccc2c1C(=O)N[C@@H]1C(=O)N2[C@@H]1SC(C)(C)[C@@H]2C(=O)O [Nafcillin sodium monohydrate] | > 20
27 | C(=C\c1ccncc1)/c1ccccc1 [4-Styrylpyridine] | > 50
28 | CC(C)N1C(=O)N(c2ccccc2)CS/C1=N\C(C)(C)C [Buprofezin] | 45.1
29 | CCOC(=O)C1CC(=O)C(=C(O)C2CC2)C(=O)C1 (stereo not drawn) [Trinexapac-ethyl] | > 90
30 | CN1C(=O)c2ccccc2C1=O [N-Methylphthalimide] | > 90
31 | O=C(Cl)c1ccccc1F [2-Fluorobenzoyl chloride] | > 90
32 | COC(=O)c1ccccc1C(=O)O [Monomethyl phthalate] | > 90
33 | N#CCCl [Chloroacetonitrile] | > 100
34 | O=C(O)Cc1ccc(CCNS(=O)(=O)c2ccc(Cl)cc2)cc1 [Daltroban] | > 50
35 | COc1nccnc1NS(=O)(=O)c1ccc(N)cc1 [Sulfalene] | > 50
36 | CC(C(=O)O)c1ccc(C2CCCCC2)c2ccccc12 (stereo not drawn) [Quadrisol] | > 50
37 | O=C[C@H](O)[C@@H](O)[C@@H](O)[C@H](O)CO [Galactose] | > 50
38 | Cc1cccc(Nc2ncccc2C(=O)O)c1C [Nixylic acid] | > 50
39 | CCC(=O)C(=O)CC [3,4-Hexanedione] | > 100
40 | CNc1cc(OC)c(C(=O)N[C@@H]2CCN(Cc3ccccc3)[C@@H]2C)cc1Cl (racemic) [Nemonapride] | > 50
41 | N=C(N)/N=C(\N)N1CCOCC1 [Moroxidine hydrochloride] | > 20
42 | O=[N+]([O-])c1ccccc1C(F)(F)F [1-Nitro-2-(trifluoromethyl)benzene] | > 90
43 | c1ccc(CNCc2ccccc2)cc1 [Dibenzylamine] | > 90
44 | CC(CC=O)CC(C)(C)C (stereo not drawn) [3,5,5-Trimethylhexanal] | > 90
45 | CC(C)(C)OC(=O)c1ccc(O)cc1 [tert-Butyl 4-hydroxybenzoate] | > 90
46 | C=CC(=O)CCCCC [1-Octen-3-one] | > 100
47 | OCCOCCO [Diethylene glycol] | > 90
48 | CC(C)CCCCCOC(=O)c1ccccc1C(=O)OCCCCCC(C)C [Diisooctyl phthalate] | > 90
49 | Cc1ccc(C(C)(C)c2ccc(C)cc2)cc1 [2,2-Di-4-tolylpropane] | > 50
50 | Cc1nc2c([nH]1)c(=O)n(C)c(=O)n2Cc1ccco1 [Furafylline] | > 50

Row | SMILES | CC50 at 24 h [µM]
51 | CCOC(=O)[C@H](CCc1ccccc1)N[C@@H](C)C(=O)N1CC2(C[C@H]1C(=O)O)SCCS2 [Spirapril hydrochloride] | > 50
52 | CCC1CO1 (stereo not drawn) [1,2-Epoxybutane] | > 90
53 | C=COCCOCCOC=C [{2-[2-(Ethenyloxy)ethoxy]ethoxy}ethene] | > 90
54 | CCCCOc1ccc(CC(=O)NO)cc1 [Bufexamac] | > 20
55 | Cc1cc(N)n(-c2ccccc2)n1 [3-Methyl-1-phenyl-1H-pyrazol-5-amine] | > 90
56 | OCc1cccc(Oc2ccccc2)c1 [3-Phenoxybenzenemethanol] | > 90
57 | OCC(CO)(CO)COCC(CO)(CO)CO [Dipentaerythritol] | > 90
58 | O=S(=O)(Oc1ccc(Cl)cc1)c1ccccc1 [Fenson] | > 90
59 | O=C1c2ccccc2C(=O)C1c1ccc2ccccc2n1 [D & C Yellow 11] | > 50
60 | CCOC(=O)c1ccc(C)cc1 [Ethyl 4-methylbenzoate] | > 90
61 | Oc1noc2c1CCNC2 [Gaboxadol] | > 50
62 | O=C1c2ccccc2C(=O)N1CO [2-(Hydroxymethyl)-1H-Isoindole-1,3(2H)-dione] | > 90
63 | CC(CCO)CCCC(C)(C)O (stereo not drawn) [3,7-Dimethyloctane-1,7-diol] | > 90
64 | COc1cc(C(C)(C)C)c(O)c(C(C)(C)C)c1 [2,6-Di-tert-butyl-4-methoxyphenol] | 48.1
65 | CCC(C)O (stereo not drawn) [2-Butanol] | > 90
66 | CCC(=O)[C@@]1(C)[C@H](C)C[C@H]2[C@@H]3CCC4=CC(=O)C=C[C@]4(C)[C@H]3[C@@H](O)C[C@@]21C [Rimexolone] | > 20
67 | CCC(CC)(CC(=O)Nc1cccc(/C=C/c2nc(C3CCC3)cs2)c1)C(=O)O [Cinalukast] | > 50
68 | NC12CC3CC(CC(C3)C1)C2 [Amantadine] | 36.1
69 | Oc1cc(O)cc(O)c1 [1,3,5-Trihydroxybenzene dihydrate] | > 50
70 | CO[C@@]1(NC(=O)Cc2cccs2)C(=O)N2C(C(=O)O)=C(COC(N)=O)CS[C@@H]21 [Cefoxitin] | > 50
71 | CN[C@]1(c2ccccc2Cl)CCCCC1=O [(S)-Ketamine] | > 50
72 | O=C1CCC(N2C(=O)c3ccccc3C2=O)C(=O)N1 (stereo not drawn) [Thalidomide] | > 90
73 | CC(=O)NO [Acetohydroxamic acid] | > 50
74 | O=C(O)c1cccc(/C=C2/C[C@@H]3[C@@H](/C=C/[C@@H](O)C4CCCCC4)[C@H](O)C[C@@H]3O2)c1 [Taprostene sodium salt] | > 50
75 | CC[C@@H](C)[C@H](N)C(=O)O [L-Alloisoleucine] | > 50

Same assay, conditions: rat, gh3-tre-luc cells, AC50 (uM) modified / 1000, Tox21_110001=Tox21_111567; viability, 1 nM T3 present, 24 h

Row | SMILES | CC50 at 24 h [µM]
76 | CNC1=Nc2ccc(Cl)cc2C(c2ccccc2)=[N+]([O-])C1 [Chlordiazepoxide] | > 50

Same assay, conditions: rat, gh3-tre-luc cells, AC50 (uM) modified / 1000, Tox21_110001=Tox21_112207; viability, 1 nM T3 present, 24 h

Row | SMILES | CC50 at 24 h [µM]
77 | C[C@]12CC[C@@H]3c4ccc(OC(=O)N(CCCl)CCCl)cc4CC[C@H]3[C@@H]1CC[C@@H]2O [Estramustine] | > 50

Same assay, conditions: rat, gh3-tre-luc cells, AC50 (uM) modified / 1000, Tox21_110001=Tox21_112368; viability, 1 nM T3 present, 24 h

Row | SMILES | CC50 at 24 h [µM]
78 | CCON=O [Ethyl nitrite] | > 50

Same assay, conditions: rat, gh3-tre-luc cells, AC50 (uM) modified / 1000, Tox21_110001=Tox21_200356; viability, 1 nM T3 present, 24 h

Row | SMILES | CC50 at 24 h [µM]
79 | CC(C)Br [2-Bromopropane] | > 90

Same assay, conditions: rat, gh3-tre-luc cells, AC50 (uM) modified / 1000, Tox21_110001=Tox21_301297; viability, 1 nM T3 present, 24 h

Row | SMILES | CC50 at 24 h [µM]
80 | NC(=O)CF [2-Fluoroacetamide] | > 90

Same assay, conditions: rat, gh3-tre-luc cells, AC50 (uM) modified / 1000, Tox21_110001=Tox21_301582; viability, 1 nM T3 present, 24 h

Row | SMILES | CC50 at 24 h [µM]
81 | CCOC(=O)CCN(SN(C)C(=O)Oc1cccc2c1OC(C)(C)C2)C(C)C [Benfuracarb] | 64

Same assay, conditions: rat, gh3-tre-luc cells, AC50 (uM) modified / 1000, Tox21_110001=Tox21_301853; viability, 1 nM T3 present, 24 h

Row | SMILES | CC50 at 24 h [µM]
82 | COCC(=O)N(c1c(C)cccc1C)N1CCOC1=O [Oxadixyl] | > 90

Same assay, conditions: rat, gh3-tre-luc cells, AC50 (uM) modified / 1000, Tox21_110001=Tox21_302060; viability, 1 nM T3 present, 24 h

Row | SMILES | CC50 at 24 h [µM]
83 | O=P(O)(O)c1ccccc1 [Phenylphosphonic acid] | > 90

Same assay, conditions: rat, gh3-tre-luc cells, AC50 (uM) modified / 1000, Tox21_110001=Tox21_400013; viability, 1 nM T3 present, 24 h

Row | SMILES | CC50 at 24 h [µM]
84 | O=[N+]([O-])c1c(Cl)c(Cl)cc(Cl)c1Cl [2,3,5,6-Tetrachloronitrobenzene] | > 90
